Laboratory results: US6121489A (priority 1997, dated 2000)

These compounds were tested against α-glucosidase from bakers yeast (assay: α-Glucosidase inhibition assay, p-nitrophenyl-α-D-glucopyranoside substrate, 96-well format). Settings: concentration necessary for 50% enzyme inhibition.
Assay type: biochemical

Going from `CC(O)C(C(=O)NCc1ccccc1)N(Cc1ccc2ccccc2c1)C(=O)C(N)Cc1cn(Cc2ccc3ccccc3c2)c2ccccc12` (stereo not drawn) [R'-(1-hydroxyethyl)] to `NC(Cc1cn(Cc2ccc3ccccc3c2)c2ccccc12)C(=O)N(Cc1ccc2ccccc2c1)C(CO)C(=O)NCc1ccccc1` (stereo not drawn) [S-(1-hydroxymethyl)], the IC50 falls from 678 µM to 176 µM (3.9-fold). The second is the more potent here.

`CC(O)C(C(=O)NCc1ccccc1)N(Cc1ccc2ccccc2c1)C(=O)C(N)Cc1cn(Cc2ccc3ccccc3c2)c2ccccc12` (stereo not drawn) [R-(1-hydroxyethyl)] and `N[C@@H](Cc1cn(Cc2ccc3ccccc3c2)c2ccccc12)C(=O)N(Cc1ccc2ccccc2c1)[C@@H](CCC(=O)O)C(=O)NCc1ccccc1` [S-(2-carboxyethyl)] cannot be ordered by IC50: greater than 1000 µM for the first, greater than 1000 µM for the second.

Compared with `CCN(C(=O)[C@@H](N)Cc1ccccc1)[C@H](Cc1ccc(O)cc1)C(=O)NCc1ccc2ccccc2c1` [R-(4-hydroxybenzyl)], `CCN(C(=O)[C@@H](N)Cc1ccccc1)[C@@H](Cc1ccc2ccccc2c1)C(=O)NCc1ccc2ccccc2c1` [S-(napth-2-ylmethyl)] is higher in IC50: 540 µM for the first, greater than 1000 µM for the second. The first is the more potent here.

`NC(Cc1cn(Cc2ccc3ccccc3c2)c2ccccc12)C(=O)N(Cc1ccc2ccccc2c1)C(Cc1cn(Cc2ccccc2)c2ccccc12)C(=O)NCc1ccccc1` (stereo not drawn) [R-(N'-benzylindol-3-ylmethyl)] and `N[C@@H](Cc1cn(Cc2ccc3ccccc3c2)c2ccccc12)C(=O)N(Cc1ccc2ccccc2c1)[C@@H](Cc1cn(Cc2ccccc2)c2ccccc12)C(=O)NCc1ccccc1` [S-(N'-benzylindol-3-ylmethyl)] are within 1.5-fold of each other in IC50: 552 µM for the first, 632 µM for the second.

Compared with `NC(Cc1cn(Cc2ccc3ccccc3c2)c2ccccc12)C(=O)N(Cc1ccc2ccccc2c1)C(CC1CCCCC1)C(=O)NCc1ccccc1` (stereo not drawn) [R-(cyclohexylmethyl)], `N[C@@H](Cc1cn(Cc2ccc3ccccc3c2)c2ccccc12)C(=O)N(CCC(=O)NCc1ccccc1)Cc1ccc2ccccc2c1` [hydrogen atom, AA = 1] is lower in IC50: greater than 1000 µM for the first, 770 µM for the second. The second is the more potent here.

Compared with `N[C@@H](Cc1cn(Cc2ccc3ccccc3c2)c2ccccc12)C(=O)N(Cc1ccc2ccccc2c1)[C@H](Cc1ccc2ccccc2c1)C(=O)NCc1ccccc1` [R-(napth-2-ylmethyl)], `CCN(C(=O)[C@@H](N)Cc1ccccc1)[C@H](C(=O)NCc1ccc2ccccc2c1)c1ccccc1` [S-(phenyl)] is lower in IC50: greater than 1000 µM for the first, 184 µM for the second.
